Laboratory results as given in article PMC8453901, “GLPG1205, a GPR84 Modulator: Safety, Pharmacokinetics, and Pharmacodynamics in Healthy Subjects” (Clinical Pharmacology in Drug Development, 2021).
Entries after “also recorded” stand apart in the source; their conditions may differ. Where two headings read alike, the source gives them in different places.

What was measured:
[1] = Study 1 MAD part: plasma and urine pharmacokinetics, once daily for 14 days; type: in vivo, human; settings: for AUC / Cmax / Tmax / half-life: male, human, plasma, oral; for AUC: dosing interval 24 hours; for Tmax: median (minimum-maximum)
Description: GLPG1205 or matching placebo were administered as an oral nanosuspension in the morning in a fed condition as an outpatient. For both the single ascending doses (SADs) and multiple ascending doses (MADs) parts of the study, subjects attended a screening visit (21 to 2 days before first study drug administration) and a follow‐up visit (7 to 10 days after the last dose).
In the MAD part of study 1, 24 healthy male subjects in 3 cohorts (C, D, and E; n = 8 each) each received GLPG1205 or matching placebo once daily for 14 days. Cohorts C, D, and E received GLPG1205 50 mg once daily or matching placebo, GLPG1205 100 mg once daily or matching placebo, and GLPG1205 200 mg once daily or matching placebo, respectively. Within a cohort, subjects were randomized to receive GLPG1205 or matching placebo in a 3:1 ratio. An interval of at least 6 days was enforced between cohorts. Subjects were kept in‐house from the evening of day –1 until ≈26 hours after first dosing (morning of day 2), and from the evening of day 13 to the morning of day 15. Administration of the study drug was performed daily at the clinical pharmacology unit.
In the SAD part of study 1, blood samples (2 mL) for PK assessments were obtained before dosing and at multiple time points on the day of study drug administration (before dosing and 0.5, 1, 2, 4, 6, 8, and 12 hours after dosing) and at 24, 48, and 72 hours after dosing. The predose sample for the next dose level was also used in PK analysis (168 hours after dosing). […] In the MAD part of study 1, blood samples (2 mL) were obtained on days 1, 2, 4, 5, 6, 8, 10, 12, 14, 15, 16, 17, and 18 and at follow‐up (approximately 7 to 10 days after the last dose). These PK blood samples were taken after dosing (1, 2, 4, 6, 8, 12, and 24 hours) on day 1; before dosing on days 4, 6, 8, and 10; and after dosing (1, 2, 4, 6, 8, 12, 24, 72, and 96 hours) on day 14. The following additional PK blood samples were also taken: cohort C, before dosing on day 5; and cohorts D and E, before dosing on day 12. Urine samples were obtained from fractions collected over 6‐ or 12‐hour periods after dosing on days –1, 1, 2, 13, 14, and 15; samples obtained on days –1 and 13 were for cytochrome P450 (CYP) induction analysis only. In study 2, blood samples (2 mL) were obtained on days 1, 2, 5, 7, 10, 14, 15, 17, and 20 and at follow‐up (approximately 21 days after end of study medication administration). Blood samples were taken before dosing and at 1, 2, 4, 6, 8, 12, and 24 hours after drug administration on days 1 and 14 and before dosing on other sampling days.
Blood samples were immediately chilled (ice bath), and the plasma was separated by centrifugation (4°C for 10 minutes at ≈1500 g) within 30 minutes of blood collection.
GLPG1205 plasma concentrations were determined using a validated liquid chromatography with tandem mass spectrometry method. After a protein precipitation with methanol, a chromatographic separation was performed on a Kinetex C18 column (50×3.0 mm, 2.6 μm; Phenomenex, Torrance, California) set at 40°C by using a Nexera high‐performance liquid chromatography (HPLC) system (Shimadzu, Kyoto, Japan) or an Infinity HPLC system (Agilent Technologies, Diegem, Belgium) in isocratic elution mode. A QTRAP6500, QTRAP4000, or API4000 mass spectrometer (AB Sciex, Nieuwerkerk aan den Ijssel, The Netherlands) equipped with a TurboIonSpray probe operated in the multiple reaction monitoring in positive mode was used for quantification. The calibration curves in plasma were linear over the range of 1 to 1000 ng/mL with 1/x^2 as weighting factor. The limit of quantification of the assay in the plasma samples was set at 1 ng/mL.
GLPG1205 concentrations in urine fractions were determined by using a qualified liquid chromatography with tandem mass spectrometry method derived from the plasma method. […]

[2] = test system: cytochrome P450 (CYP) 3A4 and CYP2C19; settings: background statement, no reference given; cited from earlier work
[3] = 50 mg, 50 mg once daily, day 1, mean (CV%)
[4] = 50 mg, 50 mg once daily, day 14, mean (CV%)
[5] = 100 mg, 100 mg once daily, day 1, mean (CV%)
[6] = 100 mg, 100 mg once daily, day 14, mean (CV%)
[7] = 200 mg, 200 mg once daily, day 1, mean (CV%)

O=c1nc(OC[C@@H]2COCCO2)cc2n1CCc1cc(C#CC3CC3)ccc1-2 [GLPG1205, 9‐cyclopropylethynyl‐2‐((S)‐1‐[1,4]dioxan‐2‐ylmethoxy)‐6,7‐dihydropyrimido[6,1‐a]isoquinolin‐4‐one]
Ae(Τ), amount excreted in urine over 24 hours ([1]; 50 mg once daily, day 1, mean (CV%)): 0.0785 (22.9) % dose | Ae(Τ), amount excreted in urine over 24 hours ([1]; 50 mg once daily, day 14, mean (CV%), N = 5): 0.428 (22.0)^N = 5 % dose | Ae(Τ), amount excreted in urine over 24 hours ([1]; 100 mg once daily, day 1, mean (CV%), N = 4): 0.0746 (30.1)^N = 4 % dose | Ae(Τ), amount excreted in urine over 24 hours ([1]; 100 mg once daily, day 14, mean (CV%)): 0.480 (27.2) % dose | Ae(Τ), amount excreted in urine over 24 hours ([1]; 200 mg once daily, day 1, mean (CV%)): 0.123 (27.0) % dose | dose-proportionality of steady-state exposure (Cmax and AUCΤ) ([1]; 50 to 100 mg once daily): increased in proportion with the dose; also recorded: increased proportionally with the dose | excretion of unchanged GLPG1205 in urine over 24 hours ([1]; at steady state on day 14): < 0.48 % of the administered dose | AUC [1, 3]: 7580 ng·h/mL | Cmax [1, 3]: 469 ng/mL | Tmax ([1]; 50 mg, 50 mg once daily, day 1): 3 h | AUC [1, 4]: 41300 ng·h/mL | Cmax [1, 4]: 2050 ng/mL | half-life ([1]; 50 mg, 50 mg once daily, day 14, mean (CV%), read-out: t1/2,λz (converted)): 76.7 h | Tmax ([1]; 50 mg, 50 mg once daily, day 14): 4 h | AUC [1, 5]: 14400 ng·h/mL | Cmax [1, 5]: 875 ng/mL | Tmax ([1]; 100 mg, 100 mg once daily, day 1): 4 h | AUC [1, 6]: 82700 ng·h/mL | Cmax [1, 6]: 3910 ng/mL | half-life ([1]; 100 mg, 100 mg once daily, day 14, mean (CV%), read-out: t1/2,λz (converted)): 88.6 h | Tmax ([1]; 100 mg, 100 mg once daily, day 14): 4 h | AUC [1, 7]: 42900 ng·h/mL | Cmax [1, 7]: 2450 ng/mL | Tmax ([1]; 200 mg, 200 mg once daily, day 1): 3 h | Cmax ([1]; 200/150 mg once daily (150 mg as of day 8), day 14, n = 3, mean (CV%)): 8900 ng/mL | AUC ([1]; 200/150 mg once daily, day 14, n = 3, mean (CV%)): 195000 ng·h/mL | half-life ([1]; 200/150 mg once daily, day 14, n = 3, mean (CV%), read-out: t1/2,λz (converted)): 141 h | Tmax ([1]; 200/150 mg once daily, day 14, n = 3): 12 h | half-life ([1]; once-daily dosing for 14 days, read-out: t1/2,λz range): 76.7 to 141 h | time to steady state in plasma concentrations ([1]; once-daily dosing for 14 days, irrespective of dose (by day 10)): 9 dosing days | main enzymes involved in GLPG1205 metabolism [2]: cytochrome P450 (CYP) 3A4 and CYP2C19
